# The source made the active and inactive calls. The rule behind the calls is not given here.
# System: Trypanosoma brucei growth inhibition
# Test: trypanosome proliferation inhibitors (AID 1159557);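 note: parasites exposed to compound for 48 h before the resazurin readout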
row,Structure (SMILES),IC50
1,COc1ccc(OC)c2c(=O)c(Cc3ccccc3)c(C)[nH]c12,> 40 µM (inactive)
2,Cc1ccccc1NS(=O)(=O)c1ccc2[nH]cc(C(=O)NC3CCCCC3)c(=O)c2c1,0.25 µM
3,COc1ccc(C(C)(C)C)cc1S(=O)(=O)n1ccnc1,40 µM
4,CCC(CC)C(=O)Nc1cccc(C(=O)Nc2nnc(C3CCCCC3)s2)c1,0.25 µM
5,COc1ccc(C2CC(c3ccccc3Cl)=NN2C(=O)CNC(=O)C2CCCC2)cc1 (centres undefined),0.63 µM
6,CC(C)(C)c1csc(NC(=O)c2ccc([N+](=O)[O-])s2)n1,0.2 µM
7,N#Cc1c(Oc2cccc(Cl)c2)cccc1[N+](=O)[O-],0.0079 µM
8,CCn1nccc1CN(C)C(=O)C=Cc1ccc(Cl)cc1,32 µM
9,CC(C)(C)Nc1nc(Nc2ccc3c(c2)CS(=O)(=O)C3)nc2[nH]ccc12,0.79 µM
10,Clc1ccc(C(CC2CCCCO2)Cn2cncn2)c(Cl)c1 (centres undefined),> 40 µM (inactive)
11,CC1CN(Cc2ccc(C#N)cc2)CCN1c1ccc(NC(=O)c2ccccc2F)cc1 (centres undefined),> 40 µM (inactive)
12,Cc1[nH]nc2c1C(c1ccc(OCc3ccccc3F)cc1)SCC(=O)N2 (centres undefined),25 µM
13,NC(N)=Nc1nc(-c2ccc(NC(N)=NCCN3CCCC3)cc2)cs1,0.04 µM
14,COc1ccc2ncc(Cl)c(CCN3CC[C@@H](NCc4cc5c(cn4)OCS5)[C@H](O)C3)c2n1,0.32 µM
15,Fc1ccc(OC2CC(NCc3cccc4cn[nH]c34)C2)cc1C(F)(F)F (centres undefined),7.9 µM
16,CC(C)Nc1nc(Cl)nc2ccccc12,5 µM
17,CC(C)CC(=O)NC(c1cccs1)c1ccc2cccnc2c1O (centres undefined),0.63 µM
18,Cc1nc(-c2nc(NCc3ccc(Cl)cc3)c3cccnc3c2O)n[nH]1,0.63 µM
19,N#Cc1cccc(CN2CCC(N(Cc3cccnc3)C(=O)c3cc(F)c(F)cc3F)CC2)c1,> 40 µM (inactive)
20,COc1cccc(CN(C)Cc2nc(N)c3c(C)c(C)sc3n2)c1,5 µM
21,N#Cc1ccc(S(=O)(=O)N2CCC3(CCN(c4ccccc4)C3=O)CC2)cc1,> 40 µM (inactive)
22,CCOc1ccc(N(C)S(=O)(=O)c2ccc3[nH]cc(C(=O)NC4CCCC4)c(=O)c3c2)cc1,0.25 µM
23,O=C(NC(CO)c1ccc(F)cc1)c1ccc(-c2c[nH]c3ncccc23)s1 (centres undefined),0.25 µM
24,Clc1cc(Br)ccc1OCCCCn1ccnc1,10 µM
25,CS(=O)(=O)c1ccccc1C(=O)N(Cc1ccccc1)c1ccccc1,0.4 µM
26,O=C(Cc1ccccc1)Nc1ccccc1C(=O)Nc1nccs1,0.25 µM
27,Cc1nnnn1-c1cccc(C(=O)N2CCC[C@@]3(C)c4ncncc4CCC23)c1 (some centres undefined),> 40 µM (inactive)

row,Structure (SMILES),IC50
1,C[C@@H](Oc1cc(-n2cnc3ccc(CC(O)CO)cc32)sc1C(N)=O)c1ccccc1Cl (some centres undefined),0.63 µM
2,COc1ccnc2[nH]cc(-c3cc(C(=O)N[C@H](CO)c4ccccc4)co3)c12,0.005 µM
3,CCCn1c(NC(=O)Cc2ccc(Cl)cc2)nc2ccccc21,2 µM
4,O=S(=O)(NCC(c1cccnc1)N1CCN(c2ccccc2F)CC1)c1ccc(F)cc1 (centres undefined),25 µM
5,CCOc1cnn(C)c(=O)c1Nc1ccc(C(=O)NCc2ccc(F)cc2)cc1,> 40 µM (inactive)
6,OC[C@@H](Nc1nccc(-c2c(-c3ccc(F)cc3)ncn2C2CCNCC2)n1)c1ccccc1,0.4 µM
7,COc1ccc(C(=O)[C@H]2C[C@@H]2CN(Cc2ccccn2)Cc2ccccn2)cc1,6.3 µM
8,O=C(NCCc1csc(-c2cccc(F)c2)n1)c1ccco1,0.5 µM
9,Cc1cc(N(C)C)nc2ccc(Cc3cnc(N)nc3N)cc12,5 µM
10,CC(C)Oc1cccc(N2CCC(C(=O)N3CCCN(C(C)C)CC3)CC2)c1,> 40 µM (inactive)
11,O=c1ccc2ccc(F)c3c2n1C[C@H]3CN1CCC(NCc2cc3ccccc3o2)CC1,0.63 µM
12,O=C(CCc1ccc(-c2ccccc2)o1)N1CCN(c2ccc(O)cc2)CC1,25 µM
13,COc1ccc(Nc2nc(NC3CCC(O)CC3)ncc2Br)c(C(N)=O)c1 (centres undefined),0.1 µM
14,CS(=O)(=O)NC1CCC(Oc2cc3cnccc3cc2-c2ccsc2)CC1 (centres undefined),16 µM
15,Cc1cccc(Nc2nc(-c3ccccn3)cs2)n1,1 µM
16,O=C(NCCc1ccccn1)C(c1cn[nH]c1)N1CCN(c2ccc(Cl)c(Cl)c2)CC1 (centres undefined),13 µM
17,O=C(Nc1ccc(C(F)(F)F)cc1)NC1(C(=O)NCc2ccco2)CCCCC1,0.79 µM
18,NC(=O)c1ncccc1Nc1nc(NC2CCC(O)CC2)ncc1Br (centres undefined),0.32 µM
19,COc1ccc(Cl)cc1CC(=O)Nc1n[nH]c(-c2ccccn2)n1,16 µM
20,N#Cc1cc(-c2ccnc(Nc3cccc(CN4CCOCC4)c3)n2)ccc1NCCN,0.4 µM
21,CN1CCC(N(C)c2nccc(N3CCN(C(=O)c4cccc(-c5cccnc5)c4)CC3)n2)CC1,0.79 µM
22,NS(=O)(=O)c1ccc(Nc2ncc3cccc(OC4CCNCC4)c3n2)cc1,0.2 µM
23,Clc1ccc(Sc2cnccc2N2CCOCC2)cc1,25 µM
24,NC(=O)c1cc(F)ccc1Nc1nc(NC2CCC(O)CC2)ncc1Cl (centres undefined),0.16 µM
25,COc1ccc(OC)c(NC(=O)c2ccc([N+](=O)[O-])o2)c1,0.016 µM
26,CS(=O)(=O)c1cccc(-c2cnc(N)c3c(-c4ccc(CO)cc4)csc23)c1,2 µM
27,Cc1cc(C)n(-c2nc(NC(C)C)nc(NC(C)(C)C)n2)n1,20 µM

row,Structure (SMILES),IC50
1,O=C(N[C@H](CO)c1ccccc1)c1ccc(-c2c[nH]c3nccc(C(F)(F)F)c23)s1,0.16 µM
2,CCN(CC)S(=O)(=O)c1ccc(Cn2nc(C(=O)Nc3ccncn3)c3ccccc32)cc1,32 µM
3,CN(Cc1cc2ccccc2s1)c1ncc2c(N)nc(N)nc2n1,32 µM
4,Cc1ncsc1CNc1cnc(-c2ccc3c(c2)OCCO3)c(-c2cnn(C)c2)c1,0.13 µM
5,O=C(Nc1nc(-c2ccccn2)cs1)c1ccccc1-n1cnnn1,0.63 µM
6,CCCc1nc2nc(N)nc(N)c2cc1CC,20 µM
7,Cc1ccc(C)c(OC2CCN(C(=O)C(C)n3ccnc3)CC2)c1 (centres undefined),> 40 µM (inactive)
8,CCN(CC)c1nc(Nc2ccncc2)nc2ccccc12,2.5 µM
9,COc1ccc(NS(=O)(=O)c2cccc(NC(=O)c3cc(F)cc(F)c3)c2)cc1,0.63 µM
10,COCCn1cnc2cc(NC(=O)C3CCCCC3)cc(C(=O)N3CCc4sccc4C3)c21,0.79 µM
11,Cc1ccc(C)c(-n2nnnc2Sc2nc([N+](=O)[O-])nn2C)c1,13 µM
12,CNc1cncc(C2CCCN2C(=O)Cc2coc3cc(C)ccc23)n1 (centres undefined),> 40 µM (inactive)
13,N#Cc1cnc(Nc2cccc(CCN3CCOCC3)c2)nc1Nc1ccccc1C(N)=O,0.063 µM
14,O=C(Nc1ccc(Br)cn1)c1ccc(Cn2cnc([N+](=O)[O-])n2)cc1,1.6 µM
15,Cc1nn(C2CCS(=O)(=O)C2)c(C)c1CN(C)C(=O)C=Cc1sc2ccccc2c1Cl (centres undefined),10 µM
16,CS(=O)(=O)c1cccc(CNC(=O)c2cncc(N3CCN(c4ccc(F)cc4)CC3)c2)c1,32 µM
17,Cc1nn(C)c(Cl)c1CN(Cc1cccnc1)Cc1ccsc1,> 40 µM (inactive)
18,CC(C)COC(=O)Nc1ccc(N2CCC(CNS(=O)(=O)c3ccccc3)CC2)c(F)c1,2.5 µM
19,CCC(=O)Nc1ccc(C(=O)Nc2ccccc2-c2ccccc2)cc1,20 µM
20,c1ccc(Nc2nc3ccccc3[nH]2)nc1,16 µM
21,CC(C)(C)CC(=O)NCCc1csc(-c2ccc(F)cc2)n1,0.63 µM
22,CCOc1ccc(NC(=O)C=Cc2ccc(CC)o2)cc1,16 µM
23,CCn1c(NC(=O)Cc2ccc(F)cc2)nc2ccccc21,3.2 µM
24,Cc1cc(NC(=O)c2ccc([N+](=O)[O-])s2)ccc1Br,0.32 µM
25,CC(C)(C)CC(=O)NCc1noc(COc2ccccc2)n1,0.63 µM

# — PubChem BioAssay AID1159557 (GlaxoSmithKline (GSK), 2015)
